Test results taken from patent US20100041089A1, “IMPROVED METHOD FOR DETECTING CHEMICAL […]” (priority 2006, published 2010).

System: yeast genes (expressed mRNA)
Assay: DNA chip measurement of expressed mRNA of yeast genes after culture with a toxic chemical substance
Assay type: cell-based, Saccharomyces cerevisiae S288C
Experimental: Yeast (Saccharomyces cerevisiae S288C (a SUC2mal mel gap2 CUP1)) were cultured at 25° C. on YPD medium (yeast extract 1%, polypeptone 2%, glucose 2%). One of toxic chemical substances was added to the cell at logarithmic growth phase, and the cell was further cultured for two hours. Cell was cultured without any chemical substance in the same condition, and was used as a control. Concentrations of the chemical substances were defined to inhibit the growth of the yeast but not lead to death.
After the completion of cultivation, the culture was centrifuged to collect the cells. To the cells, sodium acetate buffer (50 mM sodium acetate, 10 mM EDTA, 1% SDS) was added, and the mixture was shaken at 65° C. for five minutes, followed by returning to room temperature, and obtaining the supernatant, which procedure was repeated two times. To the supernatant, ½ amount of a solution of phenol/chloroform (1:1) was added, and the mixture was centrifuged to give a supernatant, an equal amount of chloroform was added, and the mixture was centrifuged to give a supernatant. To the supernatant, an equal amount of isopropanol containing 0.3 M sodium acetate was added, and the mixture was allowed to stand at room temperature for 30 minutes, after which the mixture was centrifuged to give sediment of the whole RNAs. Seventy % ethanol was added to the sediment, and the mixture was again centrifuged to give sediment, which was then dried and dissolved in water. mRNA was isolated from the whole RNAs as followings. In view of the fact that a poly A chain is attached to the 3′ terminus of mRNA, a polynucleotide having a poly T structure which was immobilized on the surface of latex beads was used to trap the mRNA, and then the mRNA was washed and eluted with spine column (Oligotex-dT30<Super>mRNA Purification Kit, Takara). Reverse transcription of the mRNA was conducted with a reverse transcriptase (Super Script II Reverse Transcriptase; catalogue No. 18064-014, GibcoBRL) using fluorescence-labeled nucleotides to give cDNAs that were introduced with Cy3-dUTP or Cy5-dUTP during the reverse transcription.
The labeled cDNAs were dissolved in TE buffer (10 mM Tris-HCl/1 mM EDTA, pH 8.0), and the solution was dropped on the DNA chip containing the whole genes of yeast (DNA Chip Research Inc. Japan) so that the cDNAs were hybridized on the DNA chip at 65° C. for over 12 hours. The fluoresces intensity of the DNA chip was read with a scanner, and the ratio relative to the fluorescence intensity resulting from the absence of chemical substance was estimated as the following, which is shown in Tables 1 to 9.
In the Tables, “Intensity” indicated in the rightmost column is a value of the level of expressed mRNA of each gene in control cells as divided by the average level of the expressions of the whole genes. A gene of which mRNA level is lower in control, and is higher in cases of addition of chemical substance, is especially useful in the detection of toxic substances.
Here, when a ratio of an amount of mRNA expressed in the presence of the chemical substance to an amount of mRNA expressed in the absence of the chemical substance is two or more, then it is considered significant.

## CN(C)C(=S)SSC(=S)N(C)C [(10), Tetramethylthiuram disulfide]
Yeast gene YFL010C, cultured two hours with substance
  The level of expressed mRNA in the presence of chemical substance/The level of expressed mRNA in the absence of chemical substance: 1.4
Yeast gene YFL024C, cultured two hours with substance
  The level of expressed mRNA in the presence of chemical substance/The level of expressed mRNA in the absence of chemical substance: 0.5
Yeast gene YFL032W, cultured two hours with substance
  The level of expressed mRNA in the presence of chemical substance/The level of expressed mRNA in the absence of chemical substance: 0.6
Yeast gene YFL056C
  The level of expressed mRNA in the presence of chemical substance/The level of expressed mRNA in the absence of chemical substance: 31.3
Yeast gene YFL056C, cultured for two hours with substance
  The level of expressed mRNA in the presence of chemical substance/The level of expressed mRNA in the absence of chemical substance: 31.3
Yeast gene YFL057C
  The level of expressed mRNA in the presence of chemical substance/The level of expressed mRNA in the absence of chemical substance: 46.1
Yeast gene YFL057C, cultured for two hours with substance
  The level of expressed mRNA in the presence of chemical substance/The level of expressed mRNA in the absence of chemical substance: 46.1
Yeast gene YGL037C, cultured two hours with substance
  The level of expressed mRNA in the presence of chemical substance/The level of expressed mRNA in the absence of chemical substance: 1.6
Yeast gene YGL046W, cultured two hours with substance
  The level of expressed mRNA in the presence of chemical substance/The level of expressed mRNA in the absence of chemical substance: 4.5
Yeast gene YGL047W, cultured two hours with substance
  The level of expressed mRNA in the presence of chemical substance/The level of expressed mRNA in the absence of chemical substance: 5.7
Yeast gene YGL053W, cultured two hours with substance
  The level of expressed mRNA in the presence of chemical substance/The level of expressed mRNA in the absence of chemical substance: 2.4
Yeast gene YGL121C, cultured two hours with substance
  The level of expressed mRNA in the presence of chemical substance/The level of expressed mRNA in the absence of chemical substance: 15.0
Yeast gene YGL136C, cultured two hours with substance
  The level of expressed mRNA in the presence of chemical substance/The level of expressed mRNA in the absence of chemical substance: 1.0
Yeast gene YGL184C
  The level of expressed mRNA in the presence of chemical substance/The level of expressed mRNA in the absence of chemical substance: 66.8
Yeast gene YGL193C, cultured two hours with substance
  The level of expressed mRNA in the presence of chemical substance/The level of expressed mRNA in the absence of chemical substance: 1.0
Yeast gene YGL199C, cultured two hours with substance
  The level of expressed mRNA in the presence of chemical substance/The level of expressed mRNA in the absence of chemical substance: 0.1
Yeast gene YGR101W, cultured two hours with substance
  The level of expressed mRNA in the presence of chemical substance/The level of expressed mRNA in the absence of chemical substance: 1.4
Yeast gene YGR110W, cultured two hours with substance
  The level of expressed mRNA in the presence of chemical substance/The level of expressed mRNA in the absence of chemical substance: 4.8
Yeast gene YGR130C, cultured two hours with substance
  The level of expressed mRNA in the presence of chemical substance/The level of expressed mRNA in the absence of chemical substance: 1.5
Yeast gene YGR142W, cultured two hours with substance
  The level of expressed mRNA in the presence of chemical substance/The level of expressed mRNA in the absence of chemical substance: 12.2
Yeast gene YGR154C, cultured two hours with substance
  The level of expressed mRNA in the presence of chemical substance/The level of expressed mRNA in the absence of chemical substance: 9.1
Yeast gene YGR213C
  The level of expressed mRNA in the presence of chemical substance/The level of expressed mRNA in the absence of chemical substance: 6.9
Yeast gene YGR221C, cultured two hours with substance
  The level of expressed mRNA in the presence of chemical substance/The level of expressed mRNA in the absence of chemical substance: 0.7
Yeast gene YHL040C (detoxification protein gene)
  The level of expressed mRNA in the presence of chemical substance/The level of expressed mRNA in the absence of chemical substance: 11.3
Yeast gene YHL040C (transport facilitation protein gene)
  The level of expressed mRNA in the presence of chemical substance/The level of expressed mRNA in the absence of chemical substance: 11.3
Yeast gene YHL047C (detoxification protein gene)
  The level of expressed mRNA in the presence of chemical substance/The level of expressed mRNA in the absence of chemical substance: 11.9
Yeast gene YHL047C (transport facilitation protein gene)
  The level of expressed mRNA in the presence of chemical substance/The level of expressed mRNA in the absence of chemical substance: 11.9
Yeast gene YHR029C, cultured two hours with substance
  The level of expressed mRNA in the presence of chemical substance/The level of expressed mRNA in the absence of chemical substance: 8.6
Yeast gene YHR071W
  The level of expressed mRNA in the presence of chemical substance/The level of expressed mRNA in the absence of chemical substance: 7.2
Yeast gene YHR116W, cultured two hours with substance
  The level of expressed mRNA in the presence of chemical substance/The level of expressed mRNA in the absence of chemical substance: 2.7
Yeast gene YHR138C, cultured two hours with substance
  The level of expressed mRNA in the presence of chemical substance/The level of expressed mRNA in the absence of chemical substance: 4.6
Yeast gene YHR139C
  The level of expressed mRNA in the presence of chemical substance/The level of expressed mRNA in the absence of chemical substance: 46.6
Yeast gene YHR199C, cultured two hours with substance
  The level of expressed mRNA in the presence of chemical substance/The level of expressed mRNA in the absence of chemical substance: 6.0
Yeast gene YIL023C, cultured two hours with substance
  The level of expressed mRNA in the presence of chemical substance/The level of expressed mRNA in the absence of chemical substance: 1.6
Yeast gene YIL024C, cultured two hours with substance
  The level of expressed mRNA in the presence of chemical substance/The level of expressed mRNA in the absence of chemical substance: 1.8
Yeast gene YIL041W, cultured two hours with substance
  The level of expressed mRNA in the presence of chemical substance/The level of expressed mRNA in the absence of chemical substance: 1.4
Yeast gene YIL087C, cultured two hours with substance
  The level of expressed mRNA in the presence of chemical substance/The level of expressed mRNA in the absence of chemical substance: 1.8
Yeast gene YIL102C, cultured two hours with the chemical substance
  The level of expressed mRNA in the presence of chemical substance/The level of expressed mRNA in the absence of chemical substance: 0.3
Yeast gene YIL117C, cultured two hours with substance
  The level of expressed mRNA in the presence of chemical substance/The level of expressed mRNA in the absence of chemical substance: 3.5
Yeast gene YIL167W
  The level of expressed mRNA in the presence of chemical substance/The level of expressed mRNA in the absence of chemical substance: 12.7
Yeast gene YIL168W
  The level of expressed mRNA in the presence of chemical substance/The level of expressed mRNA in the absence of chemical substance: 19.3
Yeast gene YIR038C (detoxification protein gene)
  The level of expressed mRNA in the presence of chemical substance/The level of expressed mRNA in the absence of chemical substance: 4.5
Yeast gene YJL020C, cultured two hours with substance
  The level of expressed mRNA in the presence of chemical substance/The level of expressed mRNA in the absence of chemical substance: 1.0
Yeast gene YJL057C, cultured two hours with substance
  The level of expressed mRNA in the presence of chemical substance/The level of expressed mRNA in the absence of chemical substance: 6.1
Yeast gene YJL066C, cultured two hours with substance
  The level of expressed mRNA in the presence of chemical substance/The level of expressed mRNA in the absence of chemical substance: 2.1
Yeast gene YJL082W, cultured two hours with substance
  The level of expressed mRNA in the presence of chemical substance/The level of expressed mRNA in the absence of chemical substance: 2.9
Yeast gene YJL100W, cultured two hours with the chemical substance
  The level of expressed mRNA in the presence of chemical substance/The level of expressed mRNA in the absence of chemical substance: 2.7
Yeast gene YJL108C, cultured two hours with substance
  The level of expressed mRNA in the presence of chemical substance/The level of expressed mRNA in the absence of chemical substance: 0.7
Yeast gene YJL149W, cultured two hours with substance
  The level of expressed mRNA in the presence of chemical substance/The level of expressed mRNA in the absence of chemical substance: 3.8
Yeast gene YJL151C, cultured two hours with substance
  The level of expressed mRNA in the presence of chemical substance/The level of expressed mRNA in the absence of chemical substance: 1.6
